Results taken from article PMC3002932 (PLoS ONE, 2010).
Where two headings read alike, the source gives them in different places.

Key:
HIV-1 (BaL) = experiment: p24^gag antigen release assay in PM1 cells; type: cell-based; conditions: MOI = 10^−2, 0.078–5 µM, 37°C/5% CO2, p24 ELISA, day 5 represents peak infection
Method: The cells were washed and resuspended in fresh growth media containing vehicle or peptides for 7 days. Supernatants were collected at days 3, 5, and 7 post-infection, and on days 3 and 5 the cells were resuspended in 1 ml of growth medium containing the appropriate concentration of vehicle or peptide. HIV-1 infection was quantified by measuring the amount of p24^gag in the cell supernatants (Perkin Elmer p24 ELISA, Waltham, MA).

CXCR4 (HIV-1IIIB) = experiment: p24^gag antigen release assay using PBMCs, CXCR4 strain; type: cell-based; conditions: PBMC based p24^gag antigen release assay
gp120BAL = experiment: SPR binding to gp120BAL; set-up: species or system HIV-1; conditions: BIAcore CM5 chip, HBS-EP pH = 7.4, KD±SEM, average from at least 5 independent experiments
Method: (§2) Surface plasmon resonance (SPR) studies were performed on a BIAcore 3000 system (BiaCore AB, Piscataway, NJ), using BIAcore CM5 sensor chips and HBS-EP running buffer (pH = 7.4) containing 10 mM HEPES, 150 mM NaCl, 3 mM EDTA, and 0.005% polysorbate 20. Proteins/peptides were immobilized on a CM5 sensor chip using the amine coupling method. The chip was activated by mixing 400 mM N-ethyl-N-(3-dimethylaminopropyl)-carbodiimide hydrochloride and 100 mM N-hydroxysuccinimide. Residual reactive groups on the chip surface were blocked using 1.0 M ethanolamine/HCl (pH = 8.5). The flow cell-1 chamber, which served as a control, lacked immobilized protein but was treated with N-ethyl-N-(3-dimethylaminopropyl)-carbodiimide hydrochloride, N-hydroxysuccinimide, and ethanolamine/HCl. Binding signals were corrected for nonspecific binding by subtracting the flow cell-1 signal. To regenerate chip surfaces, bound ligands were removed with 10 mM HCl. Data were analyzed with BIAevaluation 4.1 software (Biacore, Piscataway, NJ).

[1] = system: gp41, gp120BAL and gp120LAV; experiment: SPR binding to viral glycoproteins (gp41, gp120BAL, gp120LAV); set-up: species or system HIV-1
Method: as §2

TZM-bl cells [2] = experiment: Cell viability (CytoTox-Glo) in TZM-bl cells; type: cell-based; conditions: Figure 8
Method: (§1) Cell viability experiments were carried out using CytoTox-Glo™ Assay (Promega Corp., Madison, WI) and cytotoxicity was analyzed using an MTT-based cell proliferation kit (Boehringer Mannheim, Indianapolis, IN) Both tests were performed according to manufacturer's instructions. MTT is 3-(4,5-dimethylthiazol-2-yl)-2,5-diphenyltetrazolium bromide. Experiments utilizing vaginal epithelial cells (VECs) were carried out as previously described.

TZM-bl cells [3] = experiment: MTT reduction in TZM-bl cells; type: cell-based; conditions: Figure 8
Method: as §1

[4] = type: physicochemical; conditions: for Molecular weight range: 20 mM NaH2PO4, 20°C, 280 nm; for OD280 lost on centrifugation / weight-average molecular weight: 20 mM NaH2PO4
Method: Sedimentation equilibrium was performed at 20°C in a Beckman Optima XL-A analytical ultracentrifuge using absorption optics at 280 nm. Twelve mm path length double sector cells were used for all samples. Samples (OD280 = 0.7 and OD280 = 0.15)) were in 20 mM NaH2PO4. Sedimentation equilibrium profiles were measured at speeds of 3000, 7000, 11000, 24000 and 36000 rpm. The data were fitted with a nonlinear least-squares exponential fit for a single ideal species using the Beckman Origin-based software (Version 3.01 A partial specific volume of 0.739 was estimated from the amino acid composition using 0.9 (the partial specific volume of a leucine residue) for the partial specific volume of cyclohexylalanine and cyclohexylglycine. It was then corrected to 20°C [47].

Cha-SC-Chg-R-Chg-RSGSY-Cha-DN-Chg-R-Chg-(D)Cys-CONH2 (disulfide) [GRFN-1]
EC50 (HIV-1 (BaL)): 547 ± 66.1 nM
antiviral activity (in words) (CXCR4 (HIV-1IIIB)): maintained their antiviral activity
Kd (gp120BAL): 1060 ± 220 nM
binding (in words) [1]: binds gp41, gp120BAL and gp120LAV in a dose dependent manner
effect on viability (TZM-bl cells [2]): no effect on viability
inhibition of cellular dehydrogenase activity (MTT reduction) (TZM-bl cells [3]): appeared to inhibit cellular dehydrogenase activity (as gauged by MTT reduction) in a dose dependent manner
Molecular weight range ([4]; 3K rpm (limited data)): ∼150000 Da
Molecular weight range ([4]; 7K rpm): 68500–84700 Da
Molecular weight range ([4]; 11K rpm): 8950–38100 Da
Molecular weight range ([4]; 24K rpm): 2541–6200 Da
Molecular weight range ([4]; 36K rpm): 2245–2940 Da
OD280 lost on centrifugation ([4]; 3000 rpm): less than 5%
weight-average molecular weight ([4]; 7000 rpm, remaining heterogeneous material): about 69000
OD280 lost on centrifugation ([4]; 7000 rpm): Approximately two-thirds
weight-average molecular weight ([4]; early scans, after 16 hours, 3000 rpm): about 150,000
turbidity ([4]; initially dissolved in 20 mM NaH2PO4): slightly turbid solution
aggregation state (in words) ([4]; sedimentation equilibrium, diluted salt): high molecular weight soluble aggregates with some monomer present
